Data: patent publication US20240316047A1, “INHIBITORS OF RNA HELICASE DHX9 AND USES THEREOF” (ACCENT THERAPEUTICS, INC., priority 2022, published 2024)

Molecular target: Human recombinant DHX9 protein (Homo sapiens (Human), UniProt Q08211)
Assay: DHX9 ATPase assay (ADP-Glo)
Assay type: biochemical
Conditions: for IC50: read-out: DHX9 Biochemical Inflection Point

Chain of Human recombinant DHX9 protein (Q08211 whole entry): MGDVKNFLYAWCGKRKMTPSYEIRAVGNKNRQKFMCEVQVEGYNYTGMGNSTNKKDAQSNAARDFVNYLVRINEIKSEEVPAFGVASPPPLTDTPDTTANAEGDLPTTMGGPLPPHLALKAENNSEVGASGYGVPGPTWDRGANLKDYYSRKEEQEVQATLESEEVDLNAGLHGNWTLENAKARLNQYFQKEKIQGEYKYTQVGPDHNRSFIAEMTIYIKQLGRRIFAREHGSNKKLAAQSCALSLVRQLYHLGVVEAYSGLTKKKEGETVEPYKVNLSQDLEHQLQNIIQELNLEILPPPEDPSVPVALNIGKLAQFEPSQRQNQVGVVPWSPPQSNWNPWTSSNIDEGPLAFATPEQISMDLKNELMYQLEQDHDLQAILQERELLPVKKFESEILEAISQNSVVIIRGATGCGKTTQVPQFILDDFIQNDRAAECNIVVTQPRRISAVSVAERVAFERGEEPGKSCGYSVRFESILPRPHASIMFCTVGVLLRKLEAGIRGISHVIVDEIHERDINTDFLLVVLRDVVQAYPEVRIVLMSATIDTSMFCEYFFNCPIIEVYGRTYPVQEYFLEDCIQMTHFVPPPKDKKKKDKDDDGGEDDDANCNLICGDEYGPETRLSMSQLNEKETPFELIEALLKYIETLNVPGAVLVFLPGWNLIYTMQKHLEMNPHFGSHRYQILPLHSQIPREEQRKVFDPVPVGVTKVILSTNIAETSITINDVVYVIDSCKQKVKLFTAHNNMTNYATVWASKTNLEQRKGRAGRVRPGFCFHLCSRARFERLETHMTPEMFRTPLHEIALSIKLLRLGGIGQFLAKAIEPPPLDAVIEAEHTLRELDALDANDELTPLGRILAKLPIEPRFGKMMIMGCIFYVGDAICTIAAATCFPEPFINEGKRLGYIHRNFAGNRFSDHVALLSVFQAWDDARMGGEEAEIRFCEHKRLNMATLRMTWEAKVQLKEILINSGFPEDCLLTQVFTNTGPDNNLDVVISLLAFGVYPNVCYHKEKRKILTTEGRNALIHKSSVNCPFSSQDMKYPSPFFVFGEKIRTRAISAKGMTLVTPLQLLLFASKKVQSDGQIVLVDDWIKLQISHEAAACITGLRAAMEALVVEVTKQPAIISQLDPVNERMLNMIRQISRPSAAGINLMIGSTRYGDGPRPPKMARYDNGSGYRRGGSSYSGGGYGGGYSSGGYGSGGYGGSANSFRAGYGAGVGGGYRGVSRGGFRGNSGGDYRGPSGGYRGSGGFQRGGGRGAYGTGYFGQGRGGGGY

Structure (SMILES)	DHX9 Biochemical Max Inhibition	IC50 [µM]
CS(=O)(=O)Nc1cc(Cl)cc(NC(=O)c2cc3ccc(Cl)cc3s2)c1 [Example 293]	55%	0.0872
CS(=O)(=O)Nc1cc(Cl)cc(NC(=O)c2cc(N3CCNCC3)cs2)c1 [Example 244]	71.9%	0.0733
CS(=O)(=O)Nc1cc(Cl)cc(NC(=O)c2cc(C(=O)N3CCN(CC(F)(F)F)CC3)n(-c3ccccn3)c2)c1 [Example 649]	67.6	0.0503
CS(=O)(=O)Nc1cc(Cl)cc(NC(=O)c2cc3c(F)c(F)ccc3s2)c1 [Example 324]	63.1%	0.164
CCS(=O)(=O)Nc1cc(Cl)cc(NC(=O)c2cc(-c3ncccn3)c(C)s2)c1 [Example 27]	68%	0.0064
CS(=O)(=O)Nc1cc(Cl)cc(NC(=O)c2cnn(-c3ccc(S(C)(=O)=O)cn3)c2)c1 [Example 198]	60.7%	0.0713
Cc1sc(C(=O)Nc2cc(Cl)cc(NS(C)(=O)=O)c2)cc1-c1ncc(N2CCC(F)(F)C2)cc1F [Example 484]	66.5	0.0335
Cc1sc(C(=O)Nc2cc(Cl)cc(NS(C)(=O)=O)c2)cc1-c1ncc(N2CC(C(F)(F)F)C2)cn1 [Example 489]	68.7	0.0299
Cc1sc(C(=O)Nc2cc(Cl)cc(NS(C)(=O)=O)c2)cc1-c1ccc(N2CC(C(F)(F)F)C2)cn1 [Example 496]	71.9	0.0195
COc1cnc(-c2cc(C(=O)Nc3cc(Cl)cc(NS(C)(=O)=O)c3)sc2C)c(Cl)c1 [Example 364]	79.8%	0.0156
CS(=O)(=O)Nc1cc(Cl)cc(NC(=O)c2cn(-c3ccccc3)cn2)c1 [Example 1, N-(3-chloro-5-(methylsulfonamido)phenyl)-1-phenyl-1H-imidazole-4-carboxamide]	48.3%	0.32
COc1ccc(-n2cc(C(=O)Nc3cc(Cl)cc(NS(C)(=O)=O)c3)cc2C)nc1 [Example 391]	78.5	0.0089
Cc1cccc(O)c1-c1csc(C(=O)Nc2cc(Br)cc(NS(C)(=O)=O)c2)c1 [Example 19]	53.5%	0.115
Cc1nc(COc2cc(F)cnc2-c2cc(C(=O)Nc3cc(Cl)cc(NS(C)(=O)=O)c3)cn2C)cs1 [Example 724]	80.4	0.0197
CCS(=O)(=O)Nc1cc(Cl)cc(NC(=O)c2cc(C)n(-c3ncc(F)cc3Cl)c2)c1 [Example 446]	64.1	0.115
COCc1cnc(-c2cc(C(=O)Nc3cc(Cl)cc(NS(C)(=O)=O)c3)cn2C)nc1 [Example 690]	75.8	0.0073

Structure (SMILES)	DHX9 Biochemical Max Inhibition	IC50 [µM]
Cc1cccnc1-n1cc(C(=O)Nc2cc(Br)cc(NS(C)(=O)=O)c2)cc1C [Example 45]	67.4%	0.0164
Cc1sc(C(=O)Nc2cc(Cl)cc(NS(C)(=O)=O)c2)cc1-c1ncc(N2CCC(F)(F)CC2)cc1F [Example 471]	72.1	0.0292
Cn1cc(C(=O)Nc2cc(Cl)cc(NS(C)(=O)=O)c2)cc1-c1ccc(N2CCCC2)cn1 [Example 402]	76.8	0.0451
CCc1cn2cc(C(=O)Nc3cc(Cl)cc(NS(C)(=O)=O)c3)ccc2n1 [Example 132]	55.1%	0.295
CC(c1ccccc1)n1cc(C(=O)Nc2cc(Cl)cc(NS(C)(=O)=O)c2)cn1 (stereo not shown) [Example 142, N-(3-chloro-5-(methylsulfonamido)phenyl)-1-(1-phenylethyl)-1H-pyrazole-4-carboxamide]	62%	0.514
Cc1cc(C(=O)Nc2cc(Cl)cc(NS(C)(=O)=O)c2)cn1-c1ncc(N2CC(F)(F)C2)cc1C(F)(F)F [Example 407]	105	0.203
Cc1sc(C(=O)Nc2cc(Cl)cc(NS(C)(=O)=O)c2)cc1-c1ncc(C#N)cc1F [Example 375]	64.6%	0.0346
Cc1cc(C(=O)Nc2cc(Cl)cc(NS(C)(=O)=O)c2)cn1-c1ccc(N2CCC(F)(F)C2)cn1 [Example 396]	68.9	0.0036
COc1cc(N2CC(F)(F)C2)cnc1-c1cc(C(=O)Nc2cc(Cl)cc(NS(C)(=O)=O)c2)sc1C [Example 535]	84.2	0.0034
CC(=O)N1CCN(c2cnc(-n3cc(C(=O)Nc4cc(Br)cc(NS(C)(=O)=O)c4)cn3)c(C)c2)CC1 [Example 87]	55.7%	0.0261
CS(=O)(=O)Nc1cc(Cl)cc(NC(=O)c2cnn(-c3c(F)cccc3OCc3cncc(F)c3)c2)c1 [Example 718]	72.7	0.0157
CS(=O)(=O)Nc1cc(Cl)cc(NC(=O)c2cc(-c3ncccc3OCc3cccnc3)n(CC(F)(F)F)c2)c1 [Example 185]	80.5%	0.0047
CC(C)Oc1ccc(-c2csc(C(=O)Nc3cc(Cl)cc(NS(C)(=O)=O)c3)c2)nc1 [Example 459]	65.7	
Cn1cc(C(=O)Nc2cc(Cl)cc(NS(C)(=O)=O)c2)cc1-c1ncccc1OCc1cncc(F)c1 [Example 174, N-(3-chloro-5-(methylsulfonamido)phenyl)-5-(3-((5-fluoropyridin-3-yl)methoxy)pyridin-2-yl)-1-methyl-1H-pyrrole-3-carboxamide]	75.8%	0.0018
Cn1nc(C(=O)Nc2cc(Cl)cc(NS(C)(=O)=O)c2)cc1-c1ccccc1OCc1ccccc1 [Example 138, 5-(2-(benzyloxy)phenyl)-N-(3-chloro-5-(methylsulfonamido)phenyl)-1-methyl-1H-pyrazole-3-carboxamide]	42.6%	13.5
CS(=O)(=O)Nc1cc(Cl)cc(NC(=O)c2cc3cc(F)ccc3s2)c1 [Example 295]	63.8%	0.307

Further lines, results first:

DHX9 Biochemical Max Inhibition	IC50 [µM]	Structure (SMILES)
68.1	0.231	CS(=O)(=O)Nc1cc(Cl)cc(NC(=O)c2cnn(-c3c(F)cccc3OCc3cnco3)c2)c1 [Example 721]
37.9%	0.198	CS(=O)(=O)Nc1cc(Br)cc(NC(=O)c2cnn(-c3cccc(C#N)c3)c2)c1 [Example 52]
64.4%		CC(C)(C)OC(=O)NC1CC2(C1)CC(n1cc(C(=O)Nc3cc(Cl)cc(NS(C)(=O)=O)c3)cn1)C2 (stereo not shown) [Example 318]
94.3%	0.0252	Cn1cc(C(=O)Nc2cc(Cl)cc(NS(C)(=O)=O)c2)cc1-c1ncc(F)cc1OC(F)F [Example 363]
72.6%	0.0052	CNC(=O)c1sc(C(=O)Nc2cc(Cl)cc(NS(C)(=O)=O)c2)cc1-c1ncccc1OCc1ccccc1 [Example 212]
70.1	0.0331	Cc1cc(C(=O)Nc2cc(Cl)cc(NS(C)(=O)=O)c2)cn1-c1ncc(N2CCOC2=O)cn1 [Example 417]
67.1%		CCS(=O)(=O)Nc1cc(Cl)cc(NC(=O)c2cc(-c3ncc(F)cc3C)c(C)s2)c1 [Example 350]
61.8%	0.0599	CS(=O)(=O)Nc1cc(Cl)cc(NC(=O)c2cnn(-c3ncccc3OCc3ccncc3)c2)c1 [Example 64]
45.8%	14.6	CS(=O)(=O)Nc1cc(Br)cc(NC(=O)c2cnn(-c3cccc(OC(F)F)n3)c2)c1 [Example 57]
72.5	0.0049	Cc1sc(C(=O)Nc2cc(Cl)cc(NS(C)(=O)=O)c2)cc1-c1ncc(O)cn1 [Example 583]
61%	0.0086	CS(=O)(=O)Nc1cc(Br)cc(NC(=O)c2cc(-c3cnccn3)cs2)c1 [Example 18]
69.6%	0.0021	CS(=O)(=O)Nc1cc(Cl)cc(NC(=O)c2cc(-c3ncccc3OCc3cccnc3)cs2)c1 [Example 217]
72.9%	0.0047	CS(=O)(=O)Nc1cc(Cl)cc(NC(=O)c2cnn(-c3ncc(N4CC5(COC5)C4)cc3OCc3cc(F)cc(F)c3)c2)c1 [Example 258]
69.4%	0.0092	Cn1cc(C(=O)Nc2cc(Cl)cc(NS(C)(=O)=O)c2)cc1-c1ncccn1 [Example 82]
63.8%	0.0953	CS(=O)(=O)Nc1cc(Cl)cc(NC(=O)c2cc3c(F)cccn3c2)c1 [Example 305]
81.7	0.0051	CS(=O)(=O)Nc1cc(Cl)cc(NC(=O)c2cnn(C3CCCC3OCc3ccccc3)c2)c1 (stereo not shown) [Example 424]
97.2	0.0089	Cc1ccnc(OCc2cncc(F)c2)c1-c1cc(C(=O)Nc2cc(Cl)cc(NS(C)(=O)=O)c2)cn1C [Example 624]
56.4	0.0777	CC(C)Oc1cc(N2CC(F)(F)C2)cnc1-c1cc(C(=O)Nc2cc(Cl)cc(NS(C)(=O)=O)c2)cn1C [Example 513]
83.4	0.0225	Cn1cc(C(=O)Nc2cc(Cl)cc(NS(C)(=O)=O)c2)cc1-c1ncc(N2CCC(F)(F)CC2)cc1F [Example 469]
67.2%	0.378	CCS(=O)(=O)Nc1cc(F)cc(NC(=O)c2cc(Br)cs2)c1 [Example 72]
64.5	0.0133	Cc1cc(C(=O)Nc2cc(Cl)cc(NS(C)(=O)=O)c2)cn1-c1ncc(N2CC3(C2)CC(F)(F)C3)cn1 [Example 413]
66.5	0.059	Cn1cc(C(=O)Nc2cc(Cl)cc(NS(C)(=O)=O)c2)cc1-c1ncc(F)cc1Cl [Example 544]
66.4%	0.0435	CS(=O)(=O)Nc1cc(F)cc(NC(=O)c2cc(-c3ccccc3O)cs2)c1 [Example 114]
66.6	0.0079	CN(C)CCOc1cnc(-c2cc(C(=O)Nc3cc(Cl)cc(NS(C)(=O)=O)c3)cn2C)c(F)c1 [Example 646]
